Experiment: gradient 5% acetonitrile 3 min, to 50% in 2 min, to 85% in 15 min, held 3 min, 100 µL/min
Conditions: column: Zorbax Extend-C18 2.1 x 50 mm; eluents: water / acetonitrile, 0.1% formic acid
Outline: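 Each retention time is based on an adduct peak selected computationally and verified by manual inspection. Measurements used HPLC–quadrupole time-of-flight mass spectrometry in positive and negative ionization mode on mixtures of ~100 pure standards. Chromatography ran on a Zorbax Extend-C18 column (2.1 × 50 mm, 1.8 μm) at 100 μL/min with water and acetonitrile, each containing 0.1% formic acid, and dead and dwell volumes of 40 μL and 900 μL.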

| RP-LC retention time [s] | Structure (SMILES) |
| --- | --- |
| 608 | Cn1c(CC2CCN(C(=O)COc3cccc(Cl)c3)C2)nc2cccnc21 (stereo not given) |
| 713 | COCCCNC(=O)c1sc2ncn(CC(=O)N3CC(C)CC(C)C3)c(=O)c2c1C (stereo not given) |
| 556 | CCc1nc(N)n(CC(=O)NCc2ccc3c(c2)OCO3)c(=O)c1C |
| 1030 | CC(=O)Oc1cc(-c2cccc(C(F)(F)F)c2)c2oc(=O)sc2c1 |
| 811 | O=C(Cn1nc2ccc(C(=O)NCc3ccccc3)cn2c1=O)NCCC1=CCCCC1 |
| 720 | COc1ccc(-c2cc(=O)n3c4ccccc4n(CC(=O)Nc4ccc5c(c4)OCO5)c3n2)cc1 |
| 1200 | CCOc1ccc(C2Cn3nnc(-c4nc(-c5ccccc5OCC)no4)c3CO2)cc1 (stereo not given) |
| 1090 | CCOc1ccccc1NC(=O)CN1c2ccc(F)cc2-c2ccccc2S1(=O)=O |
| 712 | Nc1cc(C2CCN(C(=O)c3ccc(F)c(Cl)c3)CC2)no1 |
| 1090 | CCOc1cccc(-c2noc(Cn3cnc4c(cnn4-c4ccc(OC)cc4)c3=O)n2)c1 |
| 905 | Cc1ccc(-c2nc(CCN(C)C(=O)NCc3ccccc3)no2)cc1 |
| 1010 | O=C(NCC1CCS(=O)(=O)C1)c1cc(-c2ccccc2)on1 (stereo not given) |
| 754 | CC(C)c1nnc(-c2ccc(S(=O)(=O)N3CCOCC3)o2)o1 |
| 578 | COc1ccc(Cl)cc1C(=O)N1CCN(C2=NC=CN3CC(C)N=C23)CC1 (stereo not given) |
| 941 | CC(C)c1nc2ccc(C(=O)NCCc3c[nH]c4ccc(Cl)cc34)cc2o1 |
| 1150 | CC(C)Cc1cc(-c2nn3c(-c4ccc(Br)cc4)nnc3s2)n[nH]1 |
| 720 | Cc1ccc(NC(=O)NCC2CCOCC2)c(Cl)c1 |
| 840 | CCOc1ccccc1NS(=O)(=O)c1cc(-c2c(CC)noc2NC(C)=O)ccc1OC |
| 718 | COC(=O)c1cn(Cc2c(F)cccc2Cl)nc1S(=O)(=O)N(C)c1ccccc1 |
| 1160 | CCn1cc(-c2nc(C(=O)Nc3ccc(C)cc3)cs2)c2cccnc21 |
| 622 | O=C(Cc1ccc(Br)cc1)N1CCN(C(=O)c2cc(-c3ccncc3)n[nH]2)CC1 |
| 766 | CC(Oc1ccccc1)C(=O)N1CC(c2nc(-c3ccsc3)nn2C)C1 (stereo not given) |
| 681 | CC(=O)Nc1ccc(OCC(=O)NCc2cc(F)ccc2F)nc1 |

| RP-LC retention time [s] | Structure (SMILES) |
| --- | --- |
| 588 | CN(C)CCNC(=O)c1ccc(Cn2nc(N3CCN(c4ccc(F)cc4)CC3)ccc2=O)o1 |
| 764 | CCCS(=O)(=O)N1CCCC(Cc2noc(-c3cnccn3)n2)C1 (stereo not given) |
| 631 | CCC(C)N(CCNC(=O)Cn1c(=O)oc2ccccc21)Cc1ccco1 (stereo not given) |
| 655 | CN(C)CCn1c2c(c(SCC(=O)Nc3ccc(Br)cc3)nc1=O)CCC2 |
| 1040 | COC(=O)c1c(C)c(C(=O)C(C)N(Cc2ccc(F)cc2)C(=O)C2CCC2)c(C)n1C (stereo not given) |
| 709 | Cc1c(F)cccc1NC(=O)N1CCCC(Cn2cnc3cccnc32)C1 (stereo not given) |
| 923 | Cn1c(C(=O)Nc2ccc(F)cc2F)cc2c(=O)oc3ccccc3c21 |
| 624 | Cn1ncc2c3ccccc3n(CC(=O)NC3CCN(Cc4ccccc4)CC3)c2c1=O |
| 1250 | c1ccc(N2CCN(c3ncnc4scc(-c5cccs5)c34)CC2)cc1 |
| 612 | CC(NC(=O)c1cn2c(n1)CCCC2)c1ccc(F)cc1 (stereo not given) |
| 771 | Cc1nn(C(C)C(=O)NCCCOC(C)C)c(=O)c2nn(-c3ccccc3)c(C)c12 (stereo not given) |
| 602 | Cc1nc2c(c(=O)n1CC(=O)NC1CCCC1)CCN(Cc1ccccc1)C2 |
| 994 | COc1cc(-c2nnc(COc3ccc(Cl)cc3Cl)o2)cc(OC)c1OC |
| 576 | CCn1cc(CC(=O)NCCOC)c2cccnc21 |
| 716 | Cn1nc(N2CCC(NC(=O)CCC3CCCC3)C2)ccc1=O (stereo not given) |
| 843 | COc1cccc(CN2N=C(C(=O)N3CCCC3)S(=O)(=O)c3ccccc32)c1 |
| 781 | Cc1sc2ccn(C)c(=O)c2c1C(=O)NCc1cc(F)ccc1F |
| 769 | CCc1ccc(C(=O)N2CCC3(C2)C(=O)Nc2ccccc23)cc1 (stereo not given) |
| 796 | CCn1ccc2sc(C)c(C(=O)NCc3ccccc3OC)c2c1=O |
| 690 | COCCCNc1nc(-c2ccc(OC)cc2)nc2ccccc12 |
| 775 | COc1cc(OC)c(NC(=O)Cn2ccc3sccc3c2=O)cc1Cl |
| 626 | O=C(Nc1cccc([N+](=O)[O-])c1)NC1CCS(=O)(=O)C1 (stereo not given) |
| 854 | CCN(CC)C(=O)Cn1c(=O)c2cnc(-c3ccccc3)nc2n(C)c1=O |

| RP-LC retention time [s] | Structure (SMILES) |
| --- | --- |
| 1080 | CCSc1nc2ccc(NS(=O)(=O)c3ccc(C)c(C)c3)cc2s1 |
| 719 | O=S(=O)(c1cc(-c2noc(C3CC3)n2)cs1)N1CCN(c2ccccn2)CC1 |
| 698 | Cn1nc(C(=O)N2CC(N(C3CCOCC3)S(C)(=O)=O)C2)c2ccccc21 |
| 1180 | O=S(=O)(c1cc(Cl)ccc1Cl)N1CCc2nc(-c3ccccc3)ncc2C1 |
| 774 | O=C(C1CCN(c2cnn(Cc3ccccc3)c(=O)c2)CC1)N1CCCCCC1 |
| 717 | CCC(=O)NCc1nc(-c2ccccc2Cl)no1 |
| 1020 | Cc1ccc(-c2cn(CC(=O)N3CCN(c4cccc(C)c4)CC3)c(=O)o2)cc1 |
| 807 | CS(=O)(=O)N1CCC(C(=O)NCc2ccccc2)Oc2ccccc21 (stereo not given) |
| 587 | CCN(CC)CCNC(=O)c1ccc(-c2ccccc2)cc1 |
| 677 | COCc1c(C(=O)O)nnn1-c1ccc(OC)cc1 |
| 1000 | COc1ccc(Cn2c(=O)c3sccc3n(Cc3nc(-c4ccccc4)no3)c2=O)cc1 |
| 919 | CCC(=O)Nc1ccc(SCc2cc(C)ccc2C)nn1 |
| 595 | COc1cn(CC(=O)Nc2ccc(C)c(Cl)c2)c(CN2CCN(C(C)=O)CC2)cc1=O |
| 932 | Cc1[nH]nc(-c2ccc(S(=O)(=O)N3CCC(C)CC3)o2)c1C |
| 602 | CCCNC(=O)N1CCCC(c2nn(C)c(=O)n2CC)C1 (stereo not given) |
| 608 | CN(C)c1cc2c(cc1NC(=O)C1CC1)n(C)c(=O)c(=O)n2C |
| 642 | Cc1ncoc1C(=O)N1CCC(C2CCN(S(C)(=O)=O)CC2)C1 (stereo not given) |
| 1080 | Cc1ccc(NC(=O)N2c3ccccc3CC2c2nc(C3CC3)no2)c(C)c1 (stereo not given) |
| 826 | Cc1cc(-c2nnc(-c3ccco3)o2)c(C)n1CC(=O)NCc1ccccc1 |
| 605 | Cc1cnc(C2CC2)n1CCNS(=O)(=O)c1cccc(F)c1 |
| 662 | Cc1[nH]nc(-c2ccc(S(=O)(=O)N3CCN(c4ccccn4)CC3)s2)c1C |
| 1020 | Cc1cccc(NC(=O)Nc2nc(C)c(C(=O)NCc3ccc4c(c3)OCO4)s2)c1 |
| 970 | COc1ccc(-c2noc(C3CC(=O)N(c4cc(C)cc(C)c4)C3)n2)c(OC)c1 (stereo not given) |

| RP-LC retention time [s] | Structure (SMILES) |
| --- | --- |
| 793 | CC1=C(c2ccc(F)cc2)S(=O)(=O)N=C1N1CCCN(C(=O)NCC(C)C)CC1 |
| 1020 | COc1ccccc1-c1nc2nccc(-c3ccc(Br)s3)n2n1 |
| 696 | Cc1ncsc1C1N(C2CCN(C(=O)C3CC3)CC2)C(=O)C12CCCC2 (stereo not given) |
| 755 | O=S(=O)(c1ccccc1-c1nc(-c2ccccc2)no1)N1CCN(C2CCCCC2)CC1 |
| 980 | O=C(Nc1cccc(-c2ccccc2)c1)N1CCN(C(=O)Nc2cccc(-c3ccccc3)c2)CC1 |
| 1050 | COc1cccc(NC(=O)N2CCCC2c2nc(-c3cccc(Cl)c3)no2)c1 (stereo not given) |
| 634 | Cc1nnc2n1CCC(N(C)S(=O)(=O)c1ccccc1F)CC2 (stereo not given) |
| 721 | CCC(C)NC(=O)C1CCN(c2cnn(Cc3ccccc3)c(=O)c2)CC1 (stereo not given) |
| 775 | Clc1cccc(CN2CCc3nc(N4CCN(c5ccccc5)CC4)ncc3C2)c1 |
| 776 | COc1cccc(N2CC(C(=O)N3CC(c4nc(Cc5ccccc5)no4)C3)CC2=O)c1 (stereo not given) |
| 1100 | Cc1cc(C(=O)N(Cc2ccco2)c2nc3ccccc3s2)on1 |
| 800 | O=C(c1ccc(F)c(Cl)c1)N1CCC(n2c(-c3ccco3)nc3cccnc32)C1 (stereo not given) |
| 999 | CCCN1C(=O)c2ccccc2Sc2cc(-c3noc(CNC(=O)c4cccs4)n3)ccc21 |
| 625 | O=C(Nc1ccc2nc(N3CCN(C4CCCCC4)CC3)cc(C(=O)O)c2c1)c1ccc(F)cc1 |
| 584 | Cc1cnc(C(=O)NC2C[C@H]3CC[C@@H](C2)N3C(=O)c2cnc(C)cn2)cn1 (stereo not given in full) |
| 685 | COc1cc([C@H]2Oc3cc([C@H]4Oc5cc(O)cc(O)c5C(=O)[C@@H]4O)ccc3O[C@@H]2CO)ccc1O |
| 881 | COc1ccc(NC(=O)c2sc(-c3cn(C)c4ncccc34)nc2C)c(C)c1 |
| 663 | COc1ccc(NC(=O)N2CCC(c3cc(N)on3)CC2)cc1F |
| 711 | CNC(=O)C1CCCN(c2nc3ncn(CC(=O)Nc4cccc(C(C)C)c4)c(=O)c3s2)C1 (stereo not given) |
| 721 | Cc1cccc(Sc2nccnc2SCC(=O)N2CCN(c3ccccn3)CC2)c1 |

| Structure (SMILES) | RP-LC retention time [s] |
| --- | --- |
| COc1cccc(S(=O)(=O)N2CCC3(C2)C(=O)N(C)c2ccc(OC)cc23)c1 (stereo not given) | 904 |

Source: the METLIN SMRT retention time set (Domingo-Almenara et al. 2019)
